{"source": "patent US20250134860A1", "about": "“NOVEL COMPOUND, AND COMPOSITION FOR PREVENTING, ALLEVIATING OR TREATING BACTERIAL INFLAMMATION AND INFLAMMASOME-MEDIATED DISEASES, COMPRISING SAME AS ACTIVE INGREDIENT” (Quorum Bio Co., Ltd., priority 2022, published 2025)", "key": {"A. baumannii": {"system": "A. baumannii", "test": "Inhibitory effect on biofilm formation in A. baumannii", "format": "cell-based, Acinetobacter baumannii", "conditions": "0.006, 0.06, 0.6 μg/ml; 48 hours; compared with control (CT)", "procedure": "The inhibitory effect of the compound of Example 1-2 on biofilm formation in P. aeruginosa (available from the Korean Collection for Oral Microbiology (KCOM)) and A. baumannii (available from the Korea Culture Center of Microorganisms (KCCM)) was confirmed.\nSterilized cover glass slips (round, 12 mm radius) were placed individually at a bottom of each well of a cell culture plate (24-well plate) using forceps, and the compound of Example 1-2 was diluted in the medium (P. aeruginosa: LB medium, A. baumannii: NB medium) cultured with bacteria so that the final concentrations were 0.006 μg/ml, 0.06 μg/ml, and 0.6 μg/ml.\nThe prepared culture medium was dispensed into a cell culture plate in which glass slips were placed, and the respective bacteria were inoculated to a concentration of 2×10^7 cells/ml. […]\nThe biofilm in which bacteria cultured for each group were formed on glass slips was stained with 1% crystal violet solution for 15 minutes, and then washed three times with PBS (phosphate buffered saline) solution, and decolorized with acetone-alcohol (20:80, vol/vol). After the decolorizing solution containing crystal violet was put in 200 μl increments in a 96-well microplate for each group, the absorbance (OD590nm) was measured using an absorbance microplate reader (Epoch2, Bio-Tek, USA), and the biofilm formation level was compared."}, "[1]": {"test": "Plasma stability in human plasma (LC-MS/MS)", "format": "in vitro ADME", "conditions": "37° C., 0, 30, 60, 120, 240 minutes", "procedure": "(§1) The compounds of Examples 1-2 and Comparative Example, and the substance used as the positive control (Eucatropine, Loterpresnol) were dissolved in DMSO to prepare a stock solution having a concentration of 10 mM. The stock solution of each test substance was then diluted to prepare 0.2 mM and 1 mM working solutions and used for the test (For the comparative example compound, 70% acetonitrile was used as a solvent, and for the compound of Example 1-2, 50% acetonitrile was used as a solvent).\n(§2) The positive control and the standard solution of the test substance were placed in tubes containing two types of plasma (human and rat) at concentrations of 1 μM and 5 μM, respectively, and then incubated at 37° C. for a prescribed time (0, 30, 60, 120, 240 minutes) while shaking and mixing. At each time point, the mixture sample was dispensed in 100 μl increments into a cell culture plate (96-well plate) containing 400 μl of quench reagent to terminate the test, After centrifugation (5000×g, 10 min), 100 μl of the supernatant was taken out, mixed with 200 μl of ultrapure water, and the solution was then injected into a LC-MS/MS system to analyze the drug in each time zone. Thereby, the plasma stability of the compounds of Comparative Example and Example 1-2 was evaluated."}, "[2]": {"test": "General symptoms and body weight in the rat micronucleus study", "format": "in vivo", "procedure": "In addition, body weight was measured on the day of administration start and bone marrow collection to confirm presence/absence of changes due to administration of the substance, and the results are shown in Table 4 below."}, "[3]": {"test": "Plasma stability in rat plasma (LC-MS/MS)", "format": "in vitro ADME", "conditions": "37° C., 0, 30, 60, 120, 240 minutes", "procedure": "as §1, §2"}, "P. gingivalis": {"system": "P. gingivalis", "test": "Inhibitory effect on P. gingivalis biofilm formation (crystal violet, OD590nm)", "format": "cell-based, Porphyromonas gingivalis"}, "[4]": {"system": "gingipain genes (rgpA, rgpB, kgp)", "test": "Inhibitory effect on gingipain expression of P. gingivalis (RT-qPCR)", "format": "cell-based, Porphyromonas gingivalis", "conditions": "DPD 10 μM + compound 2 μM; 48 hours; normalized to 16s rRNA", "procedure": "The compounds of Examples were respectively treated onto the medium cultured with P. gingivalis, and the expression levels of three gingipain proteins (lysine-gingipain (Kgp), arginine-gingipain A (RgpA), and arginine-gingipain B (RgpB)) produced by P. gingivalis, which are major virulence factors and proteolytic enzymes, were confirmed.\nThe culture medium containing 10 μM of DPD (4,5-dihydroxy-2,3-pentane dione), which is a precursor of the bacterial signal substance (Autoinducer-2), and the culture medium containing 2 μM of the example compound or not were respectively dispensed into a cell culture plate (48 well plate), and then P. gingivalis (2×10^8 cell/ml) were inoculated for each group. The culture medium cultured with bacteria was cultured at 37° C. under anaerobic conditions (10% H2, 10% CO2, and 80% N2) for 48 hours.\nAfter 48 hours, each culture medium was centrifuged at 13,000 rpm for 1 minute to remove the supernatant, and total RNA was extracted using easy-BLUE™ Total RNA Extraction kit (iNtRON Biotechnology, Sungnam, Korea) to synthesize cDNA, and then the expression of the gingipain gene was confirmed by real-time PCR method. cDNA was synthesized using AccuPower® CycleScript RT PreMix dN6 (Bioneer, Daejeon, Korea), and real-time (quantitative) reverse transcription PCR (RT-qPCR) was carried out using Power SYBR™ Green PCR Master Mix (Applied Biosystems, Foster City, CA, USA).\nRT-qPCR amplification conditions were as follows: after enzyme activation at 95° C. for 3 minutes, denaturation at 95° C. for 10 seconds and primer annealing at 60° C. for 30 seconds were repeated 40 times, and analysis was performed using a Bio-Rad CFX Connect Real-Time PCR Detection System (Bio-Rad, Hercules, CA, USA). To normalize the expression level of the gingipain gene, the 16s rRNA gene was used, and the gene expression level was calculated using the Comparative Ct Method (ΔΔCt), which is shown in FIGS. 5a to 5c."}}, "note": "Several values for one entry are separate records, joined by “and”; a condition that tells them apart may be missing. Identical values can stand only once.", "data": [{"compound": "Cc1ccc(C(=C2c3ccccc3C(=O)N2C)c2ccc(C)cc2)cc1", "note": "[Example 1-2, 3-(di-p-tolylmethylene)-2-methylisoindolin-1-one]", "values": [{"measurement": "biofilm formation of A. baumannii", "setting": "A. baumannii", "result": "significantly suppressed in a concentration-dependent manner"}, {"measurement": "amount of the compound remaining in the plasma", "setting": "[1]", "result": "remained stable"}, {"measurement": "Body weight (g) before 1st dosing", "setting": "[2]; 500 mg/kg/day S.C., individual animals 1201-1205", "result": 263.4, "unit": "g"}, {"measurement": "Body weight (g) before 1st dosing", "setting": "[2]; 1,000 mg/kg/day S.C., individual animals 1301-1305", "result": "266.3 g and 251.3 g and 272.4 g"}, {"measurement": "Body weight (g) before 1st dosing, Mean", "setting": "[2]; 2,000 mg/kg/day S.C., group mean", "result": 266.9, "unit": "g"}, {"measurement": "Body weight (g) before 1st dosing", "setting": "[2]; 2,000 mg/kg/day S.C., individual animals 1401-1405", "result": 266.2, "unit": "g"}, {"measurement": "change in body weight compared to the negative control", "setting": "[2]; all doses (500, 1000, 2000 mg/kg/day S.C.)", "result": "did not show a statistically significant change"}, {"measurement": "clinical signs in rats", "setting": "[2]; all doses (500, 1000, 2000 mg/kg/day S.C.), observation period", "result": "no abnormal clinical signs"}, {"measurement": "amount of the compound remaining in the plasma", "setting": "[3]", "result": "remained stable"}, {"measurement": "biofilm formation of P. gingivalis increased by DPD", "setting": "P. gingivalis; DPD 10 μM + compound 0.002, 0.02, 0.2, 2 μM, 48 hours, anaerobic, OD590nm", "result": "inhibited in a concentration-dependent manner"}, {"measurement": "ability to inhibit biofilm formation of P. gingivalis at the same concentration", "setting": "P. gingivalis; Example 1-2 against comparative example compound, 0.002-2 μM with DPD", "result": "better ability to inhibit biofilm formation than the comparative example compound"}, {"measurement": "expression levels of three gingipain genes (rgpA, rgpB, kgp) increased by DPD", "setting": "[4]", "result": "reduced"}]}]}
